Where two headings read alike, the source gives them in different places.

Data set [1] in a line: Ternary phase diagram amikacin sulfate-water-ethanol. The format is physicochemical. The settings on record: 3 parts amikacin sulfate 70 mg/mL in water mixed with 2 parts ethanol. The source says:
FIG. 3 depicts a ternary phase diagram of amikacin sulfate—water—ethanol system.
FIG. 3 depicts a ternary phase diagram for an amikacin sulfate—water—ethanol system. The two-phase area under the binodial curve is a zone where the system separates into two phases, a coacervate phase and an equilibrium phase. The area above the binodial curve is a zone where single liquid phase system of amikacin sulfate dissolved in water-ethanol mixture exists. When 3 parts of amikacin sulfate solution in water at 70 mg/mL (point 1) is mixed with 2 parts of ethanol, the resulting mixture has composition (point 2), which spontaneously separates into two phases: coacervate phase rich in amikacin (point C) and equilibrium phase pour in amikacin (point E). Coacervate phase comprises only about 4.5% of total volume and originally forms as small droplets suspended in equilibrium phase. If lipids are present in surrounding solution when coacervates are just formed, they can spontaneously form bilayers around those droplets. During manufacturing it is often desired to limit exposure of the product to high ethanol concentration. For examples, another 3 parts of saline or buffer can be added consequently to the mixture, which shifts composition to the single-phase zone (point 3). […]

Data set [2] is described as follows: Miscibility of amikacin sulfate with ethanol/water. The settings on record: ethanol/water mixture, aqueous with cosolvent or surfactant or cyclodextrin. It counts as physicochemical.
Excerpt: Right after the infusion step at flow rates 300/500, ethanol concentration in the mixture reaches 34%.
One possible solution to this problem is to add more water to the vessel with the lipid/amikacin mixture, thus reducing both ethanol and amikacin concentration.

Turning to `NCC[C@H](O)C(=O)N[C@@H]1C[C@H](N)[C@@H](O[C@H]2O[C@H](CN)[C@@H](O)[C@H](O)[C@H]2O)[C@H](O)[C@H]1O[C@H]1O[C@H](CO)[C@@H](O)[C@H](N)[C@H]1O.O=S(=O)(O)O.O=S(=O)(O)O` [amikacin sulfate], the “coacervate phase, share of total volume” value in data set [1] was “about 4.5%”. As for `NCC[C@H](O)C(=O)N[C@@H]1C[C@H](N)[C@@H](O[C@H]2O[C@H](CN)[C@@H](O)[C@H](O)[C@H]2O)[C@H](O)[C@H]1O[C@H]1O[C@H](CO)[C@@H](O)[C@H](N)[C@H]1O` [amikacin], the solubility in data set [2] (27% ethanol, depending on temperature, read-out: amikacin soluble concentration) is at least 15 mg/mL; in data set [2] (34% ethanol, read-out: solubility limit), under 15 mg/mL.

The values above are taken from US20080089927A1, “Methods for Coacervation Induced Liposomal Encapsulation and Formulations Thereof” (priority 2006, published 2008).
